Source: US10357516B2 (priority 2008, dated 2019)
Marks after values point to notes of the source that are not given here.

Experiments:
[1] = tested on: Yersinia enterocolitica; format: cell-based
[2] = tested on: Pseudomonas aerugenosa; experiment: Low level input full unit inactivation in RBC units; format: cell-based, Pseudomonas aeruginosa
[3] = tested on: P. aeruginosa; experiment: Pathogen inactivation in RBC units (log reduction), high level input; format: cell-based, Pseudomonas aeruginosa
Method: Bacteria: Frozen working stocks of bacteria were inoculated into a 500 mL flask containing a mixture of 50% yeast extract media without added glucose and 50% fetal bovine serum. The flasks were incubated overnight in a shaking waterbath set at 37° C. Gram positive bacteria were spiked into the blood product directly from the overnight culture. The overnight cultures of Gram negative bacteria were further subcultured by a 1:1000 dilution into fresh culture medium and incubated as above until they reach log phase as determined by optical density. This log phase growth was spiked into the blood product for PI experiments.
The PI process involves inoculation of RBC units with a culture of the organism to be tested. The typical target input titer of organisms in the RBC units was approximately 10^6 cfu or pfu/mL of RBC. In most cases the organism volume (including any culture medium) was approximately 1% of the RBC unit volume and was not typically greater than 10%. To evaluate inactivation of lower, more physiologically relevant, levels of bacteria, inputs from 10 to 10^5 cfu/unit were used.
The dosing solutions were prepared and added to the units as follows: A 600 mM Glutathione (GSH) solution with 1 equivalent of NaOH was prepared by dissolving 2.8 g of GSH in ˜12 mL of 0.9% saline and 0.9 mL of 10 N NaOH. The appropriate volume of GSH solution was drawn into a 20 mL capacity syringe. The volume used was typically 10 mL of GSH solution per 280 mL of RBC, plus 2 mL line loss to generate 20 mM GSH in the dosed RBC unit. The syringe containing GSH was attached to the mixing container using the filtered lead that shares a Y fitting with the lead connected to the incubation container. The unit was placed on a rocker to facilitate top to bottom mixing during addition of dosing solutions. The GSH was added to the unit while the unit is mixing on the rocker. […]
Log reduction for each unit was determined by taking the log of the ratio of pre-treatment titer to post-treatment titer, where titers were expressed as 10×cfu or pfu/mL. […]

[4] = tested on: Vesicular stomatitis virus (VSV); format: cell-based
[5] = tested on: Staphylococcus aureus; experiment: Pathogen inactivation in RBC units (log reduction); format: cell-based
[6] = tested on: Serratia marcescens; experiment: Pathogen inactivation in RBC units (log reduction); format: cell-based
[7] = tested on: Escherichia coli; experiment: Pathogen inactivation in RBC units (log reduction); format: cell-based
[8] = diluted SAG-M RBC units, 20 mM GSH sodium salt, 0.2 mM S-303, 3 hour incubation, n = 4
[9] = high level input, 130 μM S-303, 13 mM GSH (1 b.e.), diluted with diluent solution, 3 h RT, N = 2
[10] = high level input, 200 μM S-303, 20 mM GSH (1 b.e.), 3 h RT, N = 2
[11] = high level input, 200 μM S-303, 20 mM GSH (1 b.e.), without leukofiltration, 3 h RT, N = 2
[12] = low level input, 200 μM S-303, 20 mM GSH (1 b.e.), RT 20 hours then 37° C. ~20 hours

## O=C(CCNc1c2ccccc2nc2ccccc12)OCCN(CCCl)CCCl [S-303, β-alanine, N-(acridin-9-yl), 2-[bis(2-chloroethyl)amino]ethyl ester]
[1]; Y. enterocolitica, 0.2 mM S-303, 20 mM GSH with 1 equivalent NaOH, AS-3 RBC ~60% hematocrit, 3 h at 20 to 25° C.
  Log Reduction GSH (20 mM), 1 b.e.: 5.0 ± 0.4 log
[1]; Y. enterocolitica, previous conditions, GSH neutralized with 2 equivalents NaOH
  Log Reduction GSH (20 mM), 2 b.e.: 4.6 log
[1]; [8]
  Average Log Kill: ≥6.57 log
[1]; [9]
  Mean Log10 Reduction, 40% Hematocrit: 6.1 log10
[1]; [10]
  Mean Log10 Reduction, 60% Hematocrit: 4.9 log10
[1]; [11]
  Mean Log10 Reduction, 80% Hematocrit: 3.4^b log10
[2]
  Pathogen inactivation of Pseudomonas aeruginosa: complete inactivation
[2]; low level input, 130 μM S-303, 13 mM GSH (1 b.e.), RT 20 hours then 37° C. ~20 hours
  Full Unit Inactivation, 40% Hematocrit: ≥2.5 log10
[2]; [12]
  Full Unit Inactivation, 60% Hematocrit: ≥2.5 log10
  Full Unit Inactivation, 80% Hematocrit: ≥2.7 log10
[3]; P. aeruginosa, 0.2 mM S-303, 20 mM GSH with 1 equivalent NaOH, AS-3 RBC ~60% hematocrit, 3 h at 20 to 25° C.
  Log Reduction GSH (20 mM), 1 b.e.: 1.2 ± 0.4 log
[3]; P. aeruginosa, previous conditions, GSH neutralized with 2 equivalents NaOH
  Log Reduction GSH (20 mM), 2 b.e.: 1.8 log
[3]; [8]
  Average Log Kill: 3.35 log
[4]
  Log Reduction GSH (20 mM), 1 b.e.: >5.9 log
  Log Reduction GSH (20 mM), 2 b.e.: 4.2 log
[4]; N = 2
  Mean Log10 Reduction, 40% Hematocrit: 5.9 log10
  Mean Log10 Reduction, 60% Hematocrit: >5.9 log10
  Mean Log10 Reduction, 80% Hematocrit: >6.2^b log10
[5]
  Log Reduction GSH (20 mM), 1 b.e.: 6.0 ± 0.3 log
  Log Reduction GSH (20 mM), 2 b.e.: 6.4 log
[5]; [8]
  Average Log Kill: 4.15 log
[5]; [9]
  Mean Log10 Reduction, 40% Hematocrit: >7 log10
[5]; [10]
  Mean Log10 Reduction, 60% Hematocrit: 6.7 log10
[5]; [11]
  Mean Log10 Reduction, 80% Hematocrit: ≥5.8^b log10
[6]
  Log Reduction GSH (20 mM), 1 b.e.: 3.7 ± 0.4 log
  Log Reduction GSH (20 mM), 2 b.e.: 4.8 log
[6]; [8]
  Average Log Kill: 4.20 log
[6]; [9]
  Mean Log10 Reduction, 40% Hematocrit: 3.1 log10
[6]; [10]
  Mean Log10 Reduction, 60% Hematocrit: 4.5 log10
[6]; [11]
  Mean Log10 Reduction, 80% Hematocrit: 4.4^b log10
[7]
  Log Reduction GSH (20 mM), 1 b.e.: 5.9 ± 0.8 log
  Log Reduction GSH (20 mM), 2 b.e.: 6.5 log
[7]; [8]
  Average Log Kill: ≥6.69 log
[7]; [9]
  Mean Log10 Reduction, 40% Hematocrit: 6.6 log10
[7]; high level input, 200 μM S-303, 20 mM GSH (1 b.e.), 3 h RT, n = 3
  Mean Log10 Reduction, 60% Hematocrit: 6.1^c log10
[7]; [11]
  Mean Log10 Reduction, 80% Hematocrit: 3.8^b log10
